Assay results taken from the supplement of paper PMC10307832.

Assays:
Assay in all cases: relative viability (nuclei count vs DMSO), 5 days (fraction); higher = more cells survive
[1] = compound: CO[C@@H]1[C@H](N(C)C(=O)c2ccccc2)C[C@H]2O[C@]1(C)n1c3ccccc3c3c4c(c5c6ccccc6n2c5c31)C(=O)NC4 [Midostaurin] + C[C@]1(O)C[C@@H](c2nc(-c3ccc4ccc(-c5ccccc5)nc4c3)c3c(N)nccn32)C1 [Linsitinib] (partner 1 µM)
How it was run: (§1)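 Five library-drug doses in √10 steps were combined with a fixed anchor-drug dose, or a single drug was given alone, by pin tool to lung cancer cell lines in 1536-well plates the day after seeding. Nuclei were stained and counted after 5 days. Relative viability is the nuclei count in treated wells over that in vehicle wells, taken as the median of duplicate plates.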

[2] = compound: COc1cc(-c2nn([C@H]3CC[C@H](N4CCN(C(C)=O)CC4)CC3)c3ncnc(N)c23)ccc1NC(=O)c1cc2ccccc2n1C + CCNC(=O)c1noc(-c2cc(C(C)C)c(O)cc2O)c1-c1ccc(CN2CCOCC2)cc1 [Luminespib] (partner 0.01 µM)
How it was run: as §1

[3] = compound: CO[C@@H]1[C@H](N(C)C(=O)c2ccccc2)C[C@H]2O[C@]1(C)n1c3ccccc3c3c4c(c5c6ccccc6n2c5c31)C(=O)NC4 [Midostaurin] + Cc1cc(Nc2cc(N3CCN(C)CC3)nc(Sc3ccc(NC(=O)C4CC4)cc3)n2)n[nH]1 [Tozasertib] (partner 0.1 µM)
How it was run: as §1

[4] = compound: CO[C@@H]1[C@H](N(C)C(=O)c2ccccc2)C[C@H]2O[C@]1(C)n1c3ccccc3c3c4c(c5c6ccccc6n2c5c31)C(=O)NC4 [Midostaurin] + COc1cccc2cc(-c3nc([C@H]4CC[C@H](C(=O)O)CC4)n4ncnc(N)c34)[nH]c12 [OSI-027] (partner 0.5 µM)
How it was run: as §1

[5] = compound: CO[C@@H]1[C@H](N(C)C(=O)c2ccccc2)C[C@H]2O[C@]1(C)n1c3ccccc3c3c4c(c5c6ccccc6n2c5c31)C(=O)NC4 [Midostaurin] + N=C(N)NC(=N)NCCc1ccccc1 [Phenformin] (partner 250 µM)
How it was run: as §1

Cell Line	relative viability ([1]; first compound 0.01 µM)	relative viability ([1]; first compound 0.03162 µM)	relative viability ([1]; first compound 0.1 µM)	relative viability ([1]; first compound 0.3162 µM)	relative viability ([2]; first compound 0.0128 µM)	relative viability ([2]; first compound 0.04048 µM)	relative viability ([2]; first compound 0.128 µM)	relative viability ([2]; first compound 1.28 µM)	relative viability ([3]; first compound 0.01 µM)	relative viability ([3]; first compound 0.03162 µM)	relative viability ([3]; first compound 0.1 µM)	relative viability ([3]; first compound 0.3162 µM)	relative viability ([4]; first compound 0.01 µM)	relative viability ([4]; first compound 0.03162 µM)	relative viability ([4]; first compound 0.1 µM)	relative viability ([4]; first compound 0.3162 µM)	relative viability ([5]; first compound 0.01 µM)	relative viability ([5]; first compound 0.03162 µM)	relative viability ([5]; first compound 0.1 µM)	relative viability ([5]; first compound 0.3162 µM)
NCI-H1793	1.08	0.77	0.651	0.559	0.166	0.186	0.168	0.156	0.38	0.39	0.313	0.184	0.319	0.287	0.263	0.216	0.444	0.325	0.36	0.26
NCI-H1734	0.832	0.803	0.728	0.928	0.219	0.19	0.16	0.172	0.239	0.276	0.294	0.267	0.57	0.589	0.632	0.552	0.421	0.354	0.453	0.366
LXF-289	1	0.967	0.866	0.953	0.783	0.732	0.663	0.702	0.23	0.23	0.178	0.176	0.819	0.864	0.842	0.743	0.519	0.51	0.49	0.505
H3255	0.948	0.875	0.953	1	0.959	1.06	0.848	0.701	0.624	0.635	0.61	0.695	0.592	0.512	0.622	0.593	0.376	0.34	0.311	0.34
201T	1.05	1	1.07	1.04	1.04	1.1	0.929	0.539	0.974	0.913	0.915	0.891	0.725	0.787	0.751	0.818	0.447	0.423	0.468	0.47
NCI-H2126	0.742	0.673	0.748	0.792	0.947	0.957	0.844	0.648	0.861	0.8	0.844	0.857	0.808	0.545	0.685	0.666	0.519	0.467	0.565	0.564
HOP-62	1.1	0.911	0.938	0.995	0.972	0.823	1	0.879	0.363	0.431	0.303	0.321	0.779	0.754	0.947	0.686	0.586	0.66	0.69	0.646
CAL-12T	0.721	0.672	0.808	0.676	0.281	0.417	0.348	0.267	0.345	0.27	0.266	0.215	0.779	0.475	0.531	0.307	0.666	0.527	0.438	0.275
NCI-H520	0.924	0.991	0.968	0.787	0.219	0.211	0.174	0.243	0.434	0.411	0.457	0.407	0.293	0.24	0.403	0.359	0.572	0.471	0.756	0.634
NCI-H1755	0.97	0.923	0.865	0.692	0.501	0.418	0.48	0.308	0.521	0.614	0.535	0.547	0.74	0.677	0.678	0.483	0.631	0.621	0.609	0.592
NCI-H2023	0.653	0.617	0.515	0.403	0.697	0.983	0.622	0.767	0.408	0.316	0.29	0.171	0.426	0.385	0.41	0.302	0.448	0.432	0.4	0.285
NCI-H2009	1.2	1.05	1.06	1.19	1.1	1.14	1.04	1.08	0.711	0.707	0.563	0.426	0.542	0.522	0.453	0.426	0.428	0.464	0.48	0.372
